Columns and labels:
[1] = molecular target: Fibroblast growth factor receptor 1 (Homo sapiens) (UniProt P11362); test: Inhibition of human FGFR1 using poly[Glu:Tyr] (4:1) as substrate at 1 uM in presence of 32P-ATP by Hotspot assay relative to control; values are per cent of control
[2] = molecular target: Serine/threonine-protein kinase pim-3 (Homo sapiens) (UniProt Q86V86); test: Inhibition of human PIM3 using RSRHSSYPAGT as substrate at 1 uM in presence of 32P-ATP by Hotspot assay relative to control; values are per cent of control
[3] = molecular target: Proto-oncogene tyrosine-protein kinase receptor Ret (Homo sapiens) (UniProt P07949); test: Inhibition of human RET using RRRRRRRRRRRVYSTDYYRLFNPS as substrate at 1 uM in presence of 32P-ATP by Hotspot assay relative to control
Chain of Proto-oncogene tyrosine-protein kinase receptor Ret (Homo sapiens) (P07949 whole entry): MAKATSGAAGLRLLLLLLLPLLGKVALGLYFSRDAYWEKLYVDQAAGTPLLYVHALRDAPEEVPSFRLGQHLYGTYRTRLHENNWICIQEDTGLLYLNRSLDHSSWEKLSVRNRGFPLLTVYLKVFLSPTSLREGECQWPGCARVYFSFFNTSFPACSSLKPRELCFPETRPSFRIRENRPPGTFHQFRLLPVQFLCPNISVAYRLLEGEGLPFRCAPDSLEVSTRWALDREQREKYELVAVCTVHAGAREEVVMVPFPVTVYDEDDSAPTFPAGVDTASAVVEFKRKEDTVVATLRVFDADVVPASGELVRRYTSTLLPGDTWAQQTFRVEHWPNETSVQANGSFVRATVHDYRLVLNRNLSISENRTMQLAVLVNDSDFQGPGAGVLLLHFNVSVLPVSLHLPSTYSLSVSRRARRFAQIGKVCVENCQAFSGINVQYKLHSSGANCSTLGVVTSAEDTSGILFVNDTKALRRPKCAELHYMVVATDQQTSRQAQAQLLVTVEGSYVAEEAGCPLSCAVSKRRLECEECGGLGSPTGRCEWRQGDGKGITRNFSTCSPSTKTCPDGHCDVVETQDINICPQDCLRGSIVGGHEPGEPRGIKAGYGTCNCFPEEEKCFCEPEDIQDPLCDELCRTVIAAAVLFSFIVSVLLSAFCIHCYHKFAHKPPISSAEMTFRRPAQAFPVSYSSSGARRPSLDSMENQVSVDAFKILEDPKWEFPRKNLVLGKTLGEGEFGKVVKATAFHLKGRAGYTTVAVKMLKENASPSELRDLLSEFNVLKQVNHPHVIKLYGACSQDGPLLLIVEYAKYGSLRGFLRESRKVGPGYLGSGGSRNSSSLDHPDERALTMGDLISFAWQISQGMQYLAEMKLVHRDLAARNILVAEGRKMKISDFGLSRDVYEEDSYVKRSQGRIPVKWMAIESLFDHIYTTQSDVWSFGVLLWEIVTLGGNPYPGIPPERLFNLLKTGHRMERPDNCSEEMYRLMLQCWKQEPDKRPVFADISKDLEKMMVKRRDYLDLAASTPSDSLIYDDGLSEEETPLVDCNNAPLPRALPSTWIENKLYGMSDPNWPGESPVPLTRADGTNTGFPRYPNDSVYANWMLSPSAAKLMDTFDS

[4] = molecular target: Homeodomain-interacting protein kinase 3 (Homo sapiens) (UniProt Q9H422); test: Inhibition of human HIPK3 using myelin basic protein as substrate at 1 uM in presence of 32P-ATP by Hotspot assay relative to control; values are per cent of control
[5] = molecular target: Maternal embryonic leucine zipper kinase (Homo sapiens) (UniProt Q14680); test: Inhibition of human MELK using KKLNRTLSFAEPG as substrate at 1 uM in presence of 32P-ATP by Hotspot assay relative to control; values are per cent of control
Chain of Maternal embryonic leucine zipper kinase (Homo sapiens) (Q14680 whole entry, looked up): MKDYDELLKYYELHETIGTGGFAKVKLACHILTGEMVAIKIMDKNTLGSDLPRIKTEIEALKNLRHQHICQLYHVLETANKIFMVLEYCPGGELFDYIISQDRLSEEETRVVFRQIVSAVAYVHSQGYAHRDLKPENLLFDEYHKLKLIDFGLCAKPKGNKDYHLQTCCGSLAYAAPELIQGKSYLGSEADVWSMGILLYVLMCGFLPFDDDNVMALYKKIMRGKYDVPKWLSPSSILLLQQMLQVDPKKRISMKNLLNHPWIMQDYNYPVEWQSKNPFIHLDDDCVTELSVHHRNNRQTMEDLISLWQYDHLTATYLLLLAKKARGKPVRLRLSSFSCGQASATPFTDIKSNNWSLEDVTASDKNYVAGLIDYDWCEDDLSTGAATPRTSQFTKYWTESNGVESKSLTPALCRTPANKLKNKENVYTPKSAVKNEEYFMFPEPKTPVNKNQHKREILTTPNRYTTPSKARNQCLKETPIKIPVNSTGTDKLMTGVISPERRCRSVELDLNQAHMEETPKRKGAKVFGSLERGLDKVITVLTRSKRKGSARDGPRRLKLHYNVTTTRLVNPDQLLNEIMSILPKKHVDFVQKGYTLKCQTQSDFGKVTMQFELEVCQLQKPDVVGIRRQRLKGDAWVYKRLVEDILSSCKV

[6] = molecular target: T1, Serine/threonine-protein kinase 17A (Homo sapiens) (UniProt Q9UEE5); test: Inhibition of human DRAK1/STK17A using KKLNRTLSFAEPG as substrate at 1 uM in presence of 32P-ATP by Hotspot assay relative to control; values are per cent of control
T1 sequence (whole entry): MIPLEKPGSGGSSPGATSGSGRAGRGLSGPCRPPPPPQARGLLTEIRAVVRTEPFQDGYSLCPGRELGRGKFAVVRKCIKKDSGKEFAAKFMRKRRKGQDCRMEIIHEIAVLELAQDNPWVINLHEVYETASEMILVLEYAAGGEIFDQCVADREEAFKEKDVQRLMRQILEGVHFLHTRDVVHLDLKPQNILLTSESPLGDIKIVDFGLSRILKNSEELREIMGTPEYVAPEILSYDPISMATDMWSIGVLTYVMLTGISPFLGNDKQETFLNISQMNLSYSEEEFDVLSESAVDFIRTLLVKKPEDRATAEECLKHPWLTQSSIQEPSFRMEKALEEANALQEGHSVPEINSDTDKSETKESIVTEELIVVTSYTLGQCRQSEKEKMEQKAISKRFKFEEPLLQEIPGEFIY

Homo sapiens = organism: Homo sapiens; test: Inhibition of human TAOK2/TAO1 using myelin basic protein as substrate at 1 uM in presence of 32P-ATP by Hotspot assay relative to control; values are per cent of control
[7] = molecular target: Calcium/calmodulin-dependent protein kinase type 1G (Homo sapiens) (UniProt Q96NX5); test: Inhibition of human CAMK1g using KKALRRQETVDAL as substrate at 1 uM in presence of 32P-ATP by Hotspot assay relative to control; values are per cent of control
Chain of Calcium/calmodulin-dependent protein kinase type 1G (Homo sapiens) (Q96NX5 whole entry): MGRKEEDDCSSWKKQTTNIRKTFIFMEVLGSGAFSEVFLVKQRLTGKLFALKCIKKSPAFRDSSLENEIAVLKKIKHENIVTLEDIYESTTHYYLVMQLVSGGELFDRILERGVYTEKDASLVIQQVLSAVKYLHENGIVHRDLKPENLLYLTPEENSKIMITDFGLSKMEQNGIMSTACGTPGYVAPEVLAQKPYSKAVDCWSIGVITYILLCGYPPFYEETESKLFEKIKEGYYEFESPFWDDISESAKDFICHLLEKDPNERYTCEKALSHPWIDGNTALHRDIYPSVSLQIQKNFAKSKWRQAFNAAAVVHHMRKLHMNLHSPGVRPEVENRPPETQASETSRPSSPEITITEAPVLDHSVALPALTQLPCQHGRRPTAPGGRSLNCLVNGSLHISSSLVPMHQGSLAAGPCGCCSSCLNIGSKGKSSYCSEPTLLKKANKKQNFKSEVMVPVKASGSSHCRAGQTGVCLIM

[8] = molecular target: Dual specificity mitogen-activated protein kinase kinase 1 (Homo sapiens) (UniProt Q02750); test: Residual activity of human MEK1 using ERK2 (K52R) as substrate at 1 uM in presence of 32P-ATP by Hotspot assay relative to control
Chain of Dual specificity mitogen-activated protein kinase kinase 1 (Homo sapiens) (Q02750 whole entry): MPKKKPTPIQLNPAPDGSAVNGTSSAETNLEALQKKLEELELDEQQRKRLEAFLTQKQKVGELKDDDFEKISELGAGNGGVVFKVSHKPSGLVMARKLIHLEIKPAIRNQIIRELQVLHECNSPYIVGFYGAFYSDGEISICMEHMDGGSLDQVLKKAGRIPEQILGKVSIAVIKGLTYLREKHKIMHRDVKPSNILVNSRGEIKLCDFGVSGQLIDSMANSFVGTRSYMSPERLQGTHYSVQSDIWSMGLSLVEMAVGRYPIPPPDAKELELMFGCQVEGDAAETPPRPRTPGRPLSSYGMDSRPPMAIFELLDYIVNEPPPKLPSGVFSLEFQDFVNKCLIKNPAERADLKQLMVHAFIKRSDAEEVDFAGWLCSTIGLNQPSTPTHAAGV

[9] = molecular target: Homeodomain-interacting protein kinase 2 (Homo sapiens) (UniProt Q9H2X6); test: Inhibition of human HIPK2 using myelin basic protein as substrate at 1 uM in presence of 32P-ATP by Hotspot assay relative to control; values are per cent of control
Chain of Homeodomain-interacting protein kinase 2 (Homo sapiens) (Q9H2X6 whole entry, looked up): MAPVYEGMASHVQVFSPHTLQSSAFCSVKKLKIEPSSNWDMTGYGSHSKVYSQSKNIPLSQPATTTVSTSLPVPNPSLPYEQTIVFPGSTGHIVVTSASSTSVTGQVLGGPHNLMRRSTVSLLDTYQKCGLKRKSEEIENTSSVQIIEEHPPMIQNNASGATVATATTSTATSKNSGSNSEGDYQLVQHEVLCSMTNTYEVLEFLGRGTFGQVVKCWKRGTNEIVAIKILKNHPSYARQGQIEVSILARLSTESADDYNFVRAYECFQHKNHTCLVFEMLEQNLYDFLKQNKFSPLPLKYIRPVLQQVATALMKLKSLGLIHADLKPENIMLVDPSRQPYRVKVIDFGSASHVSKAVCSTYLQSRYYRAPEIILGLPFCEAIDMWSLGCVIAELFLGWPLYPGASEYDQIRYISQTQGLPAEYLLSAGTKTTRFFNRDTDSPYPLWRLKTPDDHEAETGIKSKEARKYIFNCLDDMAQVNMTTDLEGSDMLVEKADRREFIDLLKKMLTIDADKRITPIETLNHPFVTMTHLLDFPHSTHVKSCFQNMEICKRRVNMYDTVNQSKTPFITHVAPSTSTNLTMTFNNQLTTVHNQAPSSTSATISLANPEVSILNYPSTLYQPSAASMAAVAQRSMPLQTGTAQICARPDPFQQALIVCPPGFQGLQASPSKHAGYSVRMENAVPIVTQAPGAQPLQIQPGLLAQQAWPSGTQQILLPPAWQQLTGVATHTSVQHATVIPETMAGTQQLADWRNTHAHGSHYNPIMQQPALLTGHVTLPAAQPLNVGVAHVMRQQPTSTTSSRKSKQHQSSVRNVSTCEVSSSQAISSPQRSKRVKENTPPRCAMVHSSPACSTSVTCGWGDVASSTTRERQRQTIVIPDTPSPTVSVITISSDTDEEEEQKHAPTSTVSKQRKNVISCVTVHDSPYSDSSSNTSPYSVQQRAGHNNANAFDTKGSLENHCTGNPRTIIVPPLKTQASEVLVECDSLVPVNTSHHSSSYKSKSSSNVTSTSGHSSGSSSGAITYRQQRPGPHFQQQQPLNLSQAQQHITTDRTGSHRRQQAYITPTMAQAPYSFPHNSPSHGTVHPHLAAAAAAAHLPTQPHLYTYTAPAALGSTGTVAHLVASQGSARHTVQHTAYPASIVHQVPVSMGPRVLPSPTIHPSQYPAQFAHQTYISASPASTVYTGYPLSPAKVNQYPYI

[10] = molecular target: T2, Tyrosine-protein kinase Mer (Homo sapiens) (UniProt Q12866); test: Inhibition of human c-MER using poly[Glu:Tyr] (4:1) as substrate at 1 uM in presence of 32P-ATP by Hotspot assay relative to control; values are per cent of control
T2 sequence (whole entry): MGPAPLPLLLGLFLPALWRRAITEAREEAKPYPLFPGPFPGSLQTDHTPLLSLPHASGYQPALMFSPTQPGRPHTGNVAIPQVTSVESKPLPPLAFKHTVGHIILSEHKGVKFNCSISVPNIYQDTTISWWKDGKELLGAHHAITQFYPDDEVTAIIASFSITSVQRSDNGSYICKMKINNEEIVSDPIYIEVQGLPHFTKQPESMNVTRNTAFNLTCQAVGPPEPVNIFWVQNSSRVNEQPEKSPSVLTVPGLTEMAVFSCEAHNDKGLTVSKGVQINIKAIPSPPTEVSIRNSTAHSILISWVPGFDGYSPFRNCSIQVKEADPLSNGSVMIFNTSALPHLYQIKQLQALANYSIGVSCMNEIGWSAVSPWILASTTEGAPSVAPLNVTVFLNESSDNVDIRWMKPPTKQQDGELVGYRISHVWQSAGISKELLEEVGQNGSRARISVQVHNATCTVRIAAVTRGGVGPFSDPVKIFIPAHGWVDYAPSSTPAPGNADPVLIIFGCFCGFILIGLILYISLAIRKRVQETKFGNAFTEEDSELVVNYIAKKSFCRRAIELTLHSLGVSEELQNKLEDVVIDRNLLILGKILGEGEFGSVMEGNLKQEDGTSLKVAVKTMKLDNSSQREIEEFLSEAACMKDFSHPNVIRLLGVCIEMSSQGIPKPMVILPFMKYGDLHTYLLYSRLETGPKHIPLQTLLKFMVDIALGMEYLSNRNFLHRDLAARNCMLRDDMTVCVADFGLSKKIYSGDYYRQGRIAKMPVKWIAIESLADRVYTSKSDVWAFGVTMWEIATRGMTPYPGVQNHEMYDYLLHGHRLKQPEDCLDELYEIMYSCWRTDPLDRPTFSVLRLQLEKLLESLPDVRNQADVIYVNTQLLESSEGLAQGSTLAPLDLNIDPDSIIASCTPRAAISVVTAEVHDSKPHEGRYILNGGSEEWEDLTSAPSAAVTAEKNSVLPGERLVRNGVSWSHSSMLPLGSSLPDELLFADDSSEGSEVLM

Chain of Fibroblast growth factor receptor 1 (Homo sapiens) (P11362 22-822 limits assumed): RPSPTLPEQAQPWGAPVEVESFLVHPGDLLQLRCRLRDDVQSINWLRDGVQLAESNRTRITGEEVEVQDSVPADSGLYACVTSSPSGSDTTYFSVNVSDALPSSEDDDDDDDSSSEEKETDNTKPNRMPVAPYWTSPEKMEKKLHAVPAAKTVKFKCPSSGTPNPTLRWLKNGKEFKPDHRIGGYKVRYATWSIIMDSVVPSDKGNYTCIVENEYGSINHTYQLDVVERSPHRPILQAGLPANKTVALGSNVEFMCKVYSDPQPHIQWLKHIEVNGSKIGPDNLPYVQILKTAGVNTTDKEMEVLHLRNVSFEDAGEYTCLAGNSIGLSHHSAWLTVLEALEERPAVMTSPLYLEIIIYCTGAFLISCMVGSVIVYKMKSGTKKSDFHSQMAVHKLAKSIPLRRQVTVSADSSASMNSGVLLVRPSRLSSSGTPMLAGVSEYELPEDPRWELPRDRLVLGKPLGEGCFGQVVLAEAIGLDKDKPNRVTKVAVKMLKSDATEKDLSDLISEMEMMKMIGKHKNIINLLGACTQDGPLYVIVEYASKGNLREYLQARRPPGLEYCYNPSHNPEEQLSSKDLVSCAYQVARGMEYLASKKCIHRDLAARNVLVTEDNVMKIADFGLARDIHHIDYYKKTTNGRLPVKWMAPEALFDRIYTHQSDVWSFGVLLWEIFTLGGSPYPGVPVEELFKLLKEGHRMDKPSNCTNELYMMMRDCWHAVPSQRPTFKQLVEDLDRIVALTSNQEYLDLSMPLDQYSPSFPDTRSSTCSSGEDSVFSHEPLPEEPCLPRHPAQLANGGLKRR

Row | Compound | residual activity [1] [%] | residual activity [2] [%] | inhibition [3] [%] | residual activity [4] [%] | residual activity [5] [%] | residual activity [6] [%] | residual activity (Homo sapiens) [%] | residual activity [7] [%] | residual activity [8] [%] | residual activity [9] [%] | residual activity [10] [%]
1 | Cc1cc(-c2cnc(N)c3c(-c4ccc5scnc5c4)csc23)n(C)n1 | 59.1 | 99.5 | 30 | 101 | 88.2 | 96.8 | 97.1 | 90.9 | 59.7 | 95.9 | 89.1
2 | CNC(=O)c1ccc2c(c1)ncn2-c1ccc(CC(=O)OC(C)(C)C)cc1 | 56.4 | 99.9 | 92.2 | 102 | 105 | 98.9 | 102 | 94.2 | 86.8 | 88.1 | 102
3 | CC(C)S(=O)(=O)c1ccc2nccc(Nc3ccc4scnc4c3)c2c1 | 63.3 | 94.2 | 48.1 | 104 | 96.5 | 99 | 93.4 | 85.6 | 102 | 101 | 93.8

— ChEMBL document CHEMBL5649166, “RIP3 induces apoptosis independent of pronecrotic kinase activity” (Mol Cell, 2014)
